System: not listed separately
Assay: Aqueous solubility (buffer vs acetonitrile/water, LC-UV)
Format: physicochemical
Conditions: kinetic from dmso stock, buffer pH 6.8, 24 h of shaking, DMSO concentration of 2.5%
Description: The aqueous solubility of the compounds of the invention is determined by comparing the amount dissolved in buffer to the amount in an acetonitrile/water (1/1) solution. Starting from a 10 mM DMSO stock solution aliquots are diluted with acetonitrile/water (1/1) or buffer, respectively. After 24 h of shaking, the solutions are filtrated and analyzed by LC-UV. The amount dissolved in buffer is compared to the amount in the acetonitrile solution. Solubility is usually being measured from 0.001 to 0.125 mg/mL at a DMSO concentration of 2.5%. If more than 90% of the compound is dissolved in buffer, the value is marked with “>”.

solubility at 24 h | Structure (SMILES)
< 1 µg/mL | Cc1cc(OCCC(C)(C)O)cc(C)c1-c1ccc(F)c2c1CC[C@H]2Oc1ccc([C@H]2C[C@@H]2C(=O)O)cc1 [Example 17 in WO 2013/178575, reference compound]

Molecular target: human GPR40 receptor (Homo sapiens, UniProt O14842)
Assay: IP1 accumulation measurements using the IPOne assay system
Format: cell-based
Conditions: 1321N1 cells stably expressing human GPR40 receptor; stimulated 1 h at 37° C.
Description: IP1 is assayed according to the manufacturers description (Cisbio Bioassays, France). In brief, the assay is started by substitution of the culture medium by stimulation buffer (Hepes 10 mM, CaCl2 1 mM, MgCl2 0.5 mM, KCl 4.2 mM, NaCl 146 mM, glucose 5.5 mM and LiCl 50 mM, pH 7.4). Cells are stimulated for 1 h at 37° C., 5% CO2 by addition of the compounds that are diluted in stimulation buffer containing LiCl. Assays are stopped by adding HTRF-conjugates (IP1-d2 and Anti-IP1 cryptate Tb) and lysis buffer, provided by the manufacturer. After an incubation time of 1 h at room temperature plates are measured using an EnVision™, Perkin Elmer. The obtained fluorescence ratios at 665/615 […] are then used to calculate the pEC50 values using Assay Explorer 3.3 Software (Accelrys, Inc.) by interpolation using an IP1 reference curve and subsequent sigmoidal curve fitting allowing for a variable hill slope.

Chain of human GPR40 receptor (O14842 whole entry): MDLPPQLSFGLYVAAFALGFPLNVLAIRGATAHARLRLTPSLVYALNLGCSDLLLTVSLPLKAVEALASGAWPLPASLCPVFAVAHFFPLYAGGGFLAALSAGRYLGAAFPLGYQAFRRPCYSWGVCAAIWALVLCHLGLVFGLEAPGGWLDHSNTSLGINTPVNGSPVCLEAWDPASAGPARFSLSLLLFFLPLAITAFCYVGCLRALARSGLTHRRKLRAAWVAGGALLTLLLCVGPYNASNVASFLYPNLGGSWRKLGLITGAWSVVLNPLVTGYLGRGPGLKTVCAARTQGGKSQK

EC50 | Structure (SMILES)
1920 nM | Cc1cc(OCC2CCCO2)cc(C)c1-c1ccc(F)c(CNc2cnc(C3CC3C(=O)O)cn2)c1 (mixture of isomers) [Example 44]
36 nM | Cc1cc(OCCCS(C)(=O)=O)cc(C)c1-c1cccc(CNc2cnc([C@H]3C[C@@H]3C(=O)O)cn2)c1 [Example 1, (1S,2S)-2-(5-{[4′-(3-Methanesulfonyl-propoxy)-2′,6′-dimethyl-biphenyl-3-ylmethyl]-amino}-pyrazin-2-yl)-cyclopropanecarboxylic acid]
28 nM | O=C(O)[C@H]1C[C@@H]1c1cnc(NCc2ccc(C(F)(F)F)c(-c3ccc(OCC4CC4)cc3)c2)cn1 [Example 3, (1S,2S)-2-{5-[(4′-Cyclopropylmethoxy-6-trifluoromethyl-biphenyl-3-ylmethyl)-amino]-pyrazin-2-yl}-cyclopropanecarboxylic acid]
9 nM | O=C(O)[C@H]1C[C@@H]1c1cnc(NCc2ccc(C(F)(F)F)c(-c3ccc(OC(F)(F)F)cc3)c2)cn1 [Example 4, (1S,2S)-2-{5-[(4′-Trifluoromethoxy-6-trifluoromethyl-biphenyl-3-ylmethyl)-amino]-pyrazin-2-yl}-cyclopropanecarboxylic acid]
19 nM | COc1ccc(-c2ccc(-c3cc(CNc4cnc([C@H]5C[C@@H]5C(=O)O)cn4)c(F)cc3F)cc2)nc1 [Example 6, (1S,2S)-2-(5-{[4,6-Difluoro-4′-(5-methoxy-pyridin-2-yl)-biphenyl-3-ylmethyl]-amino}-pyrazin-2-yl)-cyclopropanecarboxylic acid]
38 nM | COc1ccc(-c2ccc(-c3cc(CNc4cnc([C@H]5C[C@@H]5C(=O)O)cn4)c(F)cc3F)cc2)nn1 [Example 7, (1S,2S)-2-(5-{[4,6-Difluoro-4′-(6-methoxy-pyridazin-3-yl)-biphenyl-3-ylmethyl]-amino}-pyrazin-2-yl)-cyclopropanecarboxylic acid]
126 nM | Cc1cc(N)ccc1-c1cc(CNc2cnc([C@H]3C[C@@H]3C(=O)O)cn2)c(F)cc1F [Example 8, (1S,2S)-2-{5-[(4′-Amino-4,6-difluoro-2′-methyl-biphenyl-3-ylmethyl)-amino]-pyrazin-2-yl}-cyclopropanecarboxylic acid]
596 nM | O=C(O)[C@H]1C[C@@H]1c1cnc(NCc2cc(-c3ccc(O)c(Cl)c3)c(F)cc2F)cn1 [Example 9, (1S,2S)-2-{5-[(3′-Choro-4,6-difluoro-4′-hydroxy-biphenyl-3-ylmethyl)-amino]-pyrazin-2-yl}-cyclopropanecarboxylic acid]
53 nM | COc1c(F)cc(-c2cc(CNc3cnc([C@H]4C[C@@H]4C(=O)O)cn3)c(F)cc2F)cc1F [Example 10, (1S,2S)-2-{5-[(4,6,3′,5′-Tetrafluoro-4′-methoxy-biphenyl-3-ylmethyl)-amino]-pyrazin-2-yl}-cyclopropanecarboxylic acid]
18 nM | Cc1cc(OCC(C)(C)O)cc(C)c1-c1ccc(F)c(CNc2cnc(C3CC3C(=O)O)cn2)c1 (stereo not drawn) [Example 11]
100 nM | Cc1cc(OCC2(O)CCS(=O)(=O)CC2)cc(C)c1-c1ccc(F)c(CNc2cnc(C3CC3C(=O)O)cn2)c1 (stereo not drawn) [Example 12]
224 nM | CNC(=O)c1cc(C)c(-c2ccc(F)c(CNc3cnc(C4CC4C(=O)O)cn3)c2)c(C)c1 (stereo not drawn) [Example 13]
34 nM | Cc1cc(C(=O)N(C)C)cc(C)c1-c1ccc(F)c(CNc2cnc(C3CC3C(=O)O)cn2)c1 (stereo not drawn) [Example 14]
24 nM | Cc1cc(C(=O)O)cc(C)c1-c1ccc(F)c(CNc2cnc(C3CC3C(=O)O)cn2)c1 (stereo not drawn) [Example 15]
21 nM | Cc1cc(-c2ccc(=O)n(C)c2)cc(C)c1-c1ccc(F)c(CNc2cnc(C3CC3C(=O)O)cn2)c1 (stereo not drawn) [Example 16]
154 nM | CC(C)c1ccccc1-c1ccc(F)c(CNc2cnc(C3CC3C(=O)O)cn2)c1 (stereo not drawn) [Example 17]
14 nM | Cc1cc(OCC2CCOCC2)cc(C)c1-c1ccc(F)c(CNc2cnc(C3CC3C(=O)O)cn2)c1 (stereo not drawn) [Example 18]
22 nM | Cc1cc(OC2CCOCC2)cc(C)c1-c1ccc(F)c(CNc2cnc(C3CC3C(=O)O)cn2)c1 (stereo not drawn) [Example 20]
21 nM | Cc1cc(-c2cc(=O)n(C)cn2)cc(C)c1-c1ccc(F)c(CNc2cnc(C3CC3C(=O)O)cn2)c1 (stereo not drawn) [Example 21]
14 nM | Cc1cc(-c2ccn(C)c(=O)c2)cc(C)c1-c1ccc(F)c(CNc2cnc(C3CC3C(=O)O)cn2)c1 (stereo not drawn) [Example 22]
34 nM | Cc1cc(OCC(C)(C)C#N)cc(C)c1-c1ccc(F)c(CNc2cnc(C3CC3C(=O)O)cn2)c1 (stereo not drawn) [Example 24]
7 nM | Cc1cc(-c2nnn(CC(C)(C)O)n2)cc(C)c1-c1ccc(F)c(CNc2cnc(C3CC3C(=O)O)cn2)c1 (stereo not drawn) [Example 28]
68 nM | Cc1cc(OCC2(O)CCOCC2)cc(C)c1-c1ccc(F)c(CNc2cnc(C3CC3C(=O)O)cn2)c1 (stereo not drawn) [Example 29]
28 nM | Cc1cc(OCC2(O)CCSCC2)cc(C)c1-c1ccc(F)c(CNc2cnc(C3CC3C(=O)O)cn2)c1 (stereo not drawn) [Example 30]

EC50 | Structure (SMILES)
5 nM | COc1cc(-c2cc(C)c(-c3ccc(F)c(CNc4cnc(C5CC5C(=O)O)cn4)c3)c(C)c2)ccn1 (stereo not drawn) [Example 31]
20 nM | Cc1nc(-c2ccc(-c3ccc(F)c(CNc4cnc(C5CC5C(=O)O)cn4)c3)cc2)cs1 (stereo not drawn) [Example 32]
147 nM | Cc1cc(OCC2(C)COC2)cc(C)c1-c1ccc(F)c(CNc2cnc(C3CC3C(=O)O)cn2)c1 (stereo not drawn) [Example 33]
104 nM | Cc1cc(OCC(=O)O)cc(C)c1-c1ccc(F)c(CNc2cnc(C3CC3C(=O)O)cn2)c1 (stereo not drawn) [Example 34]
4 nM | CCc1cccc(CC)c1-c1ccc(F)c(CNc2cnc(C3CC3C(=O)O)cn2)c1 (stereo not drawn) [Example 36]
47 nM | COc1cc(OC)c(F)c(-c2ccc(F)c(CNc3cnc(C4CC4C(=O)O)cn3)c2)c1F (stereo not drawn) [Example 37]
4280 nM | Cc1cc(CO)cc(C)c1-c1ccc(F)c(CNc2cnc(C3CC3C(=O)O)cn2)c1 (stereo not drawn) [Example 39]
51 nM | O=C(O)C1CC1c1cnc(NCc2cc(-c3ccccc3C(F)(F)F)ccc2F)cn1 (stereo not drawn) [Example 40]
723 nM | Cc1ccc(Cl)c(-c2ccc(F)c(CNc3cnc(C4CC4C(=O)O)cn3)c2)c1Cl (stereo not drawn) [Example 41]
28 nM | Cc1cc(OC2CCOC2)cc(C)c1-c1ccc(F)c(CNc2cnc(C3CC3C(=O)O)cn2)c1 (stereo not drawn) [Example 42]
34 nM | O=C(O)C1CC1c1cnc(NCc2cc(-c3c(F)cc(F)cc3F)ccc2F)cn1 (stereo not drawn) [Example 45]
6 nM | O=C(O)C1CC1c1cnc(NCc2cc(-c3c(Cl)cccc3Cl)ccc2F)cn1 (stereo not drawn) [Example 46]
579 nM | O=C(O)C1CC1c1cnc(NCc2cc(-c3c(F)cccc3F)ccc2F)cn1 (stereo not drawn) [Example 47]
24 nM | COc1cc(C)c(-c2ccc(F)c(CNc3cnc(C4CC4C(=O)O)cn3)c2)c(C)c1 (stereo not drawn) [Example 48]
10 nM | Cc1cc(C(N)=O)cc(C)c1-c1ccc(F)c(CNc2cnc(C3CC3C(=O)O)cn2)c1 (stereo not drawn) [Example 49]
1390 nM | COc1cc(OC)c(Cl)c(-c2ccc(F)c(CNc3cnc(C4CC4C(=O)O)cn3)c2)c1Cl (stereo not drawn) [Example 50]
51 nM | N#CC1(c2ccccc2-c2ccc(F)c(CNc3cnc(C4CC4C(=O)O)cn3)c2)CC1 (stereo not drawn) [Example 51]
887 nM | COc1cc(OC)c(-c2ccc(F)c(CNc3cnc(C4CC4C(=O)O)cn3)c2)c(OC)c1 (stereo not drawn) [Example 53]
11 nM | O=C(O)C1CC1c1cnc(NCc2cc(-c3c(F)cc(OC4CC4)cc3F)ccc2F)cn1 (stereo not drawn) [Example 54]
189 nM | Nc1cc(F)c(-c2ccc(F)c(CNc3cnc(C4CC4C(=O)O)cn3)c2)c(F)c1 (stereo not drawn) [Example 55]
177 nM | O=C(O)C1CC1c1cnc(NCc2cc(-c3ccc(-c4cnco4)cc3)ccc2F)cn1 (stereo not drawn) [Example 56]
> 10000 nM | N#Cc1cccc(C#N)c1-c1ccc(F)c(CNc2cnc(C3CC3C(=O)O)cn2)c1 (stereo not drawn) [Example 57]
896 nM | COc1cc(F)c(-c2ccc(F)c(CNc3cnc(C4CC4C(=O)O)cn3)c2)c(F)c1 (stereo not drawn) [Example 58]
24 nM | Cc1cccc(C)c1-c1ccc(F)c(CNc2cnc(C3CC3C(=O)O)cn2)c1 (stereo not drawn) [Example 59]

Structure (SMILES) | EC50
CC(C)(O)CCOc1ccc(-c2cc(CNc3cnc([C@H]4C[C@@H]4C(=O)O)cn3)ccc2C(F)(F)F)cc1 [Example 2, (1S,2S)-2-(5-{[4′-(3-Hydroxy-3-methyl-butoxy)-6-trifluoromethyl-biphenyl-3-ylmethyl]-amino}-pyrazin-2-yl)-cyclopropanecarboxylic acid] | 6 nM
Cc1cc(OCCC(C)(C)O)cc(C)c1-c1cc(CNc2cnc([C@H]3C[C@@H]3C(=O)O)cn2)ccc1C(F)(F)F [Example 5, (1S,2S)-2-(5-{[4′-(3-Hydroxy-3-methyl-butoxy)-2′,6′-dimethyl-6-trifluoromethyl-biphenyl-3-ylmethyl]-amino}-pyrazin-2-yl)-cyclopropanecarboxylic acid] | 310 nM

Reference: patent publication US10793530B2, “Benzylaminopyrazinylcyclopropanecarboxylic acids, pharmaceutical compositions and uses thereof” (Boehringer Ingelheim International GmbH, priority 2017, dated 2020)
